Assay results from patent US6399052B2, “Treating hair by targeting enzymes” (Unilever Home & Personal Care USA division of Conopco, Inc., priority 1999, dated 2002).
Peptide text beside a SMILES is read from it. * marks the point of attachment. AMC = Cc1cc(=O)oc2cc(N*)ccc12; Cbz = O=C(OCc1ccccc1)*

Experiments:
[1] = tested on: cathepsin L-type protease activity of hair extract; experiment: peptidyl-AMC protease assay of hair fibre extract; format: biochemical, human
Procedure: Hair fibres taken from approx. 5 mm from the scalps of male and female individuals, aged 25-35, were cleaned, dried and then ground in liquid N2, and homogenised with an Ystral Homogeniser (high shear) using a 10 mm probe in extraction buffer (50 mM Citrate-Phosphate pH6.0, 2M NaCl).
Triton X-100 (2% stock) was added to the homogenate to a final concentration of 0.1%, and intermittently mixed by gentle agitation and incubated on ice for 1 hour. Large hair debris was allowed to precipitate and the solution was centrifuged at 13000 rpm for 5 minutes to remove insoluble protein. The resulting supernatant, containing soluble protein was dialysed (MWCO ca […]) in 50 mM citrate-phosphate, pH 6.0. Glycerol was added to the dialysed extract to 20% (v/v). The extracts were then aliquotted and stored at −20° C. until required.
With the above information, it was decided to investigate the protease profile of the hair extracts with the use of more specific peptide substrates (peptidyl-7-amido-4-methylcoumarin (peptidyl-AMC) substrates). Seven peptidyl-AMC substrates were used to study the protease types within the hair extract. These were selected on the basis of their specificity for individual protease species.
Stock solutions of each peptidyl-AMC substrate (Bachem) were prepared at 10 mM in DMSO and stored in aliquots at 4° C. Each aliquot was diluted to 1 mM with MQ water, prior to use. All assays (100 μl final volume) were routinely conducted in triplicate. For the measurement of cysteine protease activity, the standard assay contained 50 mM citrate-phosphate buffer pH 6.0, 100 μM peptidyl-AMC, 5 mM cysteine and approximately 1 μg protein extract. The assays were initiated by the addition of substrate and incubated at 30° C. for 2 hours. The reactions were terminated with the addition of 1 ml ‘stop’ solution (100 mM sodium monochloroacetate, 30 mM sodium acetate, 70 mM acetic acid).
The hydrolysed AMC was measured with the use of a fluorimeter set to 370 nm (excitation) and 460 nm (emission). Protease activity was quantified using standard concentrations of AMC. The fluorescence of each substrate and the hair extract were also measured and these values subtracted from the final fluorescence of each reaction, to give the value of fluorescence increase due to AMC liberation.

human steroid sulphatase = biological target: T1, human steroid sulphatase (Homo sapiens, UniProt P08842); settings: substrate cholesterol-3-sulphate; cited from earlier work
T1 sequence (P08842 22-583): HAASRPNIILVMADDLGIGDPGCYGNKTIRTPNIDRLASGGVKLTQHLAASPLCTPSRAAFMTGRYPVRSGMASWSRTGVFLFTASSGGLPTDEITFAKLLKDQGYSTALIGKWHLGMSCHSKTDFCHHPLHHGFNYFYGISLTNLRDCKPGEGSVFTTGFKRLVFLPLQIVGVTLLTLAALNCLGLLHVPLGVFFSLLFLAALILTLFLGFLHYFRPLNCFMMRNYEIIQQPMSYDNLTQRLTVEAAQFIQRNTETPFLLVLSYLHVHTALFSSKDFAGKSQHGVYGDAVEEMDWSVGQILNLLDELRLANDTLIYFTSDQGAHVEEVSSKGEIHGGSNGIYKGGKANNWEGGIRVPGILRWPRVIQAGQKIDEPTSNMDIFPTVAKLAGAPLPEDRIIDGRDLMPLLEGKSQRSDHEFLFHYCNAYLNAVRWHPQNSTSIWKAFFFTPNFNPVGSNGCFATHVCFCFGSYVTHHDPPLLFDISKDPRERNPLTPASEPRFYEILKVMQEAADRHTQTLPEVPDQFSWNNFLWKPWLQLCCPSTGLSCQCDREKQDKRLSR

[2] = hair fibre extract, substrate z-Phe-Arg-AMC

CC(C)C[C@H](NC(=O)[C@H]1O[C@@H]1C(=O)O)C(=O)NCCCCN=C(N)N (relative stereo) [E-6464, L-trans-epoxysuccinyl-leucylamido(4-guanido)butane]
inhibition of the z-Phe-Arg-AMC hydrolysing activity of hair extract [1, 2]: potently inhibited

CC(C)CCC[C@@H](C)[C@H]1CC[C@H]2[C@@H]3CC=C4C[C@@H](OS(=O)(=O)O)CC[C@]4(C)[C@H]3CC[C@]12C [cholesterol-3-sulphate]
Km (human steroid sulphatase): 5 µM

N[C@@H](CS)C(=O)O [cysteine]
stimulation of the z-Phe-Arg-AMC hydrolysing activity of hair extract [1, 2]: stimulated

Cc1cc(=O)oc2cc(NC(=O)C(CCCN=C(N)N)NC(=O)C(Cc3ccccc3)NC(=O)OCc3ccccc3)ccc12 (stereo not drawn) [z-Phe-Arg-AMC] (Cbz-Phe-Arg-{AMC}; configuration not given here)
apparent Vmax of cathepsin L-type activity ([1]; hair extract, 1 mg of extract from approx. 9 g hair): 1.66 nmoles AMC produced per minute per mg hair extract
hydrolysis by the hair extracts compared with the other peptidyl-AMC substrates ([1]; seven peptidyl-AMC substrates, 100 μM, pH 6.0, 30° C., 2 hours): most hydrolysed
